Reference: ChEMBL document CHEMBL4000153, “Bioactive Sesquiterpenoid and Polyacetylene Glycosides from Atractylodes lancea” (J Nat Prod, 2016)

Key:
BV-2 = assay: Antiinflammatory activity in mouse BV2 cells assessed as inhibition of LPS-induced nitric oxide production after 24 hrs by Griess assay; type: functional, cell-based; conditions: BV-2, 24 h
HepG2 = assay: Hepatoprotective activity against APAP-induced cell injury in human HepG2 cells assessed as survival rate at 10 uM after 48 hrs by MTT assay relative to control; type: functional; conditions: HepG2, 48 h, read-out: Survival

Row | IC50 (BV-2) | SMILES | viability at 10 µM (HepG2)
1 | 11.4 µM | CC1=CC(=O)C=C(CO)[C@@]12CC[C@@H](C(C)(C)O[C@@H]1O[C@H](CO)[C@@H](O)[C@H](O)[C@H]1O)C2 | –
2 | – | CC1=CC(=O)C=C(CO)[C@@]12CC[C@@H](C(C)(C)O[C@@H]1O[C@H](CO[C@@H]3OC[C@](O)(CO)[C@H]3O)[C@@H](O)[C@H](O)[C@H]1O)C2 | 58.2%
3 | – | COC(=O)c1cc(OC)c2c(c1-c1c(CO)cc(OC)c3c1OCO3)OCO2 [BICYCLOL] | 52.9%
4 | 4.77 µM | COc1cc(/C=C/C(=O)CC(=O)/C=C/c2ccc(O)c(OC)c2)ccc1O [CURCUMIN] | –
